Test results published in article PMC2806265, “Divergence of allosteric effects of rapacuronium on binding and function of muscarinic receptors” (BMC Pharmacology, 2009).
Where two headings read alike, the source gives them in different places.

Tests used:
M2 muscarinic receptor [1] = molecular target: T1, M2 muscarinic receptor (Homo sapiens, UniProt P08172); experiment: [3H]ACh association and dissociation kinetics; format: binding; parameters: host or cells: CHO cells, stably transfected; membrane preparation; details: 10 μM rapacuronium, 40 nM [^3H]ACh
T1 sequence (P08172 1-466): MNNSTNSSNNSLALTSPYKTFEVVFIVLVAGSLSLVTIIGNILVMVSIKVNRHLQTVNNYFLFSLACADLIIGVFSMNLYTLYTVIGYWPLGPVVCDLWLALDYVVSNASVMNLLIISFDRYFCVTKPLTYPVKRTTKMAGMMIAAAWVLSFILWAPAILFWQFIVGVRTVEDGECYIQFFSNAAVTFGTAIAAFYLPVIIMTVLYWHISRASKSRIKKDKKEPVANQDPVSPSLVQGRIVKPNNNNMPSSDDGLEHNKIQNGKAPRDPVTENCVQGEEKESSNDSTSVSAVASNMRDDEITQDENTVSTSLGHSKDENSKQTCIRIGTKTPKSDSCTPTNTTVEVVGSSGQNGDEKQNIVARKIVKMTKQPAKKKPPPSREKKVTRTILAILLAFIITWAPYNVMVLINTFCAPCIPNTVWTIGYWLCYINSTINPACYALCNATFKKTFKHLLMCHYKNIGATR
Description: y, radioligand binding at time x; kobs, observed rate of association; equilibrium binding Beq = Bottom + Span.
y, radioligand binding at time x normalized to binding at time 0; koff1 and koff2, dissociation rate constants; f2, fraction of binding site with dissociation rate constant koff2. When both Eq. 7a and 7b were fitted to data the better fit was chosen based on sum of squares F-test and runs test.

M1 muscarinic receptor = molecular target: T2, M1 muscarinic receptor (Homo sapiens, UniProt P11229); format: binding
T2 construct: host or cells: CHO cells, stably transfected; membrane preparation
T2 sequence (P11229 1-460): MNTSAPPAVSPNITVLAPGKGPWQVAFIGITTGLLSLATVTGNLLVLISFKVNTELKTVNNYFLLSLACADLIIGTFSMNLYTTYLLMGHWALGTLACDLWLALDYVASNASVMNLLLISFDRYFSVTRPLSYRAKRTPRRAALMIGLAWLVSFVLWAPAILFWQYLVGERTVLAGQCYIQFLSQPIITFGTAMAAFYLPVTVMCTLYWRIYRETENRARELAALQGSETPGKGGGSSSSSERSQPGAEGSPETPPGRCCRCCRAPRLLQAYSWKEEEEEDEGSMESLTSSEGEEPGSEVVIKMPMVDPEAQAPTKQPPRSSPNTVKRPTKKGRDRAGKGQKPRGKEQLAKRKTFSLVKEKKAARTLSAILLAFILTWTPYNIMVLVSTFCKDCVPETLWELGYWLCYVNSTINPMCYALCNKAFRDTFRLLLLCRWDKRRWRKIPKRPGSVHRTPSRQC
Description: (§1) BMAX, maximum binding capacity; KD, equilibrium dissociation constant.

M3 muscarinic receptor = molecular target: T3, M3 muscarinic receptor (Homo sapiens, UniProt P20309); format: binding
T3 construct: host or cells: CHO cells, stably transfected; membranes
Description: as §1

M2 muscarinic receptor [2] = molecular target: T1, M2 muscarinic receptor; experiment: Effect of rapacuronium on high-affinity 20 nM [3H]ACh binding; parameters: host or cells: CHO cells, stably transfected; membrane preparation
Description: Cooperativity factor greater than 1 denotes negative cooperativity and less than 1 positive cooperativity. Due to its log-normal error distribution factors of cooperativity are expressed as negative logarithms (pα) through the manuscript so negative values denotes negative cooperativity and positive value denotes positive cooperativity.

M4 muscarinic receptor [3] = molecular target: T4, M4 muscarinic receptor (Homo sapiens, UniProt P08173); experiment: [35S]GTPγS binding to membranes; format: biochemical; parameters: host or cells: CHO cells, stably transfected; membranes; details: for EMAX of ACh on [^35S]GTPγS binding: fold of basal
T4 sequence (P08173 1-479): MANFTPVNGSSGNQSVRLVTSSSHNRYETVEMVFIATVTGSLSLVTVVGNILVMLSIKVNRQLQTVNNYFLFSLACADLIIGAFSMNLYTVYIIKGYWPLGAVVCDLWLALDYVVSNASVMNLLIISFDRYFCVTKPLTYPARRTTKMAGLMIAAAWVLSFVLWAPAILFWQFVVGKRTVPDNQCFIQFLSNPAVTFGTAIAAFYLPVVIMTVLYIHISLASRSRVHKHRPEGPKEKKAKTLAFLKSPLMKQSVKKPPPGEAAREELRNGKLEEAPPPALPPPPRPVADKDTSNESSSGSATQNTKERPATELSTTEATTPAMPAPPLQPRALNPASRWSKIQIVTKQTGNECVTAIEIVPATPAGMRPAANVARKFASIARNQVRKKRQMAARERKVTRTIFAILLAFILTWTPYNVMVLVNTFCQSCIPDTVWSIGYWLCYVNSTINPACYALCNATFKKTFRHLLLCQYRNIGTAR
Description: For determination of [^35S]GTPγS binding to G-proteins in membranes a final concentration of 200 pM (M1, M3 and M5 receptors) or 500 pM (M2 and M4 receptors) of [^35S]GTPγS was used. Incubation medium was supplemented with 5 μM (M1, M3 and M5 receptors) or 50 μM (M2 and M4 receptors) GDP. […] Incubation with [^35S]GTPγS was carried out for 20 min and free ligand was removed by filtration as described above. Filtration and washing with ice-cold water lasted for 9 s (wash-aspirate button time).

M4 muscarinic receptor [4] = molecular target: T4, M4 muscarinic receptor; experiment: Effect of rapacuronium on low-affinity ACh binding ([3H]NMS + GTPγS + ACh); parameters: host or cells: CHO cells, stably transfected; membranes
Description: […]. Data are expressed as percent of specific binding in the absence of rapacuronium. […]. […] Data are means ± SE from 3 independent experiments performed in quadruplicates. Curves are fits of Eq. 3 (circles) and Eq. 4 (squares and triangles) to data prior to normalization.
[…]. […] […].

T3 sequence (P20309 whole entry): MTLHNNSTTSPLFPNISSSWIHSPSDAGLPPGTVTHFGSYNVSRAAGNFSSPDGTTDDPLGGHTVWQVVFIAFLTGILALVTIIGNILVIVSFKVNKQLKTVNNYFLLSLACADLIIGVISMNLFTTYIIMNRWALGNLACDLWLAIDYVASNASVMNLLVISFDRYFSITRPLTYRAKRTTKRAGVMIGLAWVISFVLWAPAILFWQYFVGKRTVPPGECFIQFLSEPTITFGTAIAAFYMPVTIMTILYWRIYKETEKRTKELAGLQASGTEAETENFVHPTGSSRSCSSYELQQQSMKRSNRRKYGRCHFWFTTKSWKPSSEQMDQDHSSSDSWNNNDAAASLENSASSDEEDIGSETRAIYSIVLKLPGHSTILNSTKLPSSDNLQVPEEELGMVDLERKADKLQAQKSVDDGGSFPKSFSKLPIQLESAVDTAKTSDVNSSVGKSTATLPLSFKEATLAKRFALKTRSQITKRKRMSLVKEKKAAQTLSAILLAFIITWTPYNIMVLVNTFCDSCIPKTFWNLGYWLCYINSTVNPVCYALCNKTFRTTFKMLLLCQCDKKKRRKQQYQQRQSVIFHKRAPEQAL

SMILES: C=CC[N+]1([C@H]2C[C@H]3[C@@H]4CC[C@H]5C[C@H](OC(C)=O)[C@@H](N6CCCCC6)C[C@]5(C)[C@H]4CC[C@]3(C)[C@H]2OC(=O)CC)CCCCC1 [rapacuronium]
- time of peak of [^3H]ACh association (M2 muscarinic receptor [1]): around 90 seconds
- BMAX of [^3H]NMS (M1 muscarinic receptor; + 10 μM rapacuronium): 2.03 ± 0.15 fmol/μg of protein
- BMAX of [^3H]NMS (M1 muscarinic receptor; + 100 μM rapacuronium): 1.85 ± 0.17 fmol/μg of protein
- BMAX of [^3H]NMS (M3 muscarinic receptor; + 10 μM rapacuronium): 1.67 ± 0.14 fmol/μg of protein
- BMAX of [^3H]NMS (M3 muscarinic receptor; + 100 μM rapacuronium): 1.59 ± 0.16 fmol/μg of protein
- pα, cooperativity with [^3H]ACh high affinity binding (M2 muscarinic receptor [2]; M2, negative value = negative cooperativity): -1.46 ± 0.08
- Kd (M2 muscarinic receptor [2]; read-out: pKA of rapacuronium (converted)): 2.82 µM
- EC50 (M4 muscarinic receptor [3]): 36.3 µM
- EMAX of ACh on [^35S]GTPγS binding (M4 muscarinic receptor [3]; M4, + 0.1 μM rapacuronium): 2.95 ± 0.11
- EMAX of ACh on [^35S]GTPγS binding (M4 muscarinic receptor [3]; M4, + 1 μM rapacuronium): 2.80 ± 0.12
- EMAX of ACh on [^35S]GTPγS binding (M4 muscarinic receptor [3]; M4, + 10 μM rapacuronium): 2.32 ± 0.16
- EMAX of rapacuronium on [^35S]GTPγS binding (M4 muscarinic receptor [3]; M4, rapacuronium alone, normalized to absence of rapacuronium): 0.86 ± 0.06
- Kd (M4 muscarinic receptor [4]): 3.24 µM
- decrease in ACh low-affinity binding (cooperativity) (M4 muscarinic receptor [4]; M4): 36 times
- pβ, cooperativity with ACh low affinity binding (M4 muscarinic receptor [4]; M4, negative value = negative cooperativity): -1.56 ± 0.07
